{"source": "patent US8912144B2", "about": "“Method for treating stroke via administration of NEP1-40 and inosine” (Children's Medical Center Corporation, priority 2003, dated 2014)", "system": "corticospinal neurons (CSNs/CSMNs)", "experiment": "Laser-capture microdissection and Illumina microarray gene expression in corticospinal neurons contralateral to stroke", "type": "in vivo, rat", "protocol": "In a separate group of animals (n=20), layer V pyramidal cells of the sensorimotor cortex were retrogradely labeled by injecting Alexa-Fluor-488-conjugated cholera toxin B subunit (CTB; 300 U/μl in sterile saline) into the cervical spinal cord. For this, animals were anesthetized with a combination of ketamine and Domitor (medetomidine) and a laminectomy was performed at the cervical level of the spinal cord (C2-C4). CTB was stereotaxically delivered into four sites lateral to the corticospinal tract. Injections (1.3 μl) were spaced 1 mm apart on the rostro-caudal axis, and were made 0.5 mm to the left and right of the midline. After allowing two weeks for transport of the tracer, we performed either sham surgery with no treatment (n=6) or stroke surgery combined with saline (n=3) or inosine (n=4) treatment as described above. Seven days later, animals were decapitated under transient gas anesthesia, brains were removed and rinsed in cold RPMI medium, and a tissue block containing the sensorimotor cortex was dissected and placed in OCT Tissue Tek Medium (Sakura Finetek USA Inc., CA) on dry ice within five minutes of death. Ten μm sections were cut onto precleaned Gold Seal RITE-ON glass slides (Gold Seal Prod-ucts, Portsmouth, N.H.), placed on dry ice, and rapidly stored at −80° C.\nSlide-mounted sections were thawed and dehydrated in RNAse-free ethanol gradients and xylene. Retro-gradely labeled, fluorescent cortical pyramidal cells in the undamaged hemisphere were individually captured using the Arcturus VERITAS system. ≧500 cells were collected from each animal and stored in Arcturus extraction buffer at −80° C. Total RNA was extracted from cells using the Micro-to-Midi TotalRNA Purification System (Invitrogen, Carlsbad Calif.) and double-amplified using the TargetAmp 2-Round Aminoallyl-aRNA Amplification kit 1.0 (Epicentre, Madison, Wis.). Amplified RNA was checked for average fragment length using the Agilent RNA 6000 Nano LabChip kit (Agilent Technologies, Santa Clara, Calif.) and then biotinylated and hybridized (1 μg) on Illumina RatRef-12 Expression BeadChip arrays (Illumina, San Diego Calif.), querying the expression of >22,000 RefSeq-curated rat transcripts. Results were obtained from a total of 15 samples representing 6 untreated controls, 4 animals with stroke treated with saline and 5 animals with stroke treated with inosine. Slides were processed and scanned with Illumina BeadStation platform according to the manufacturer protocol.\nRaw data was analyzed using Bioconductor packages (www.bioconductor.org, (Gentleman et al., 2004)). Low level quality-control analysis was performed using inter-array Pearson correlation and clustering based on variance. Two arrays (1 saline and 1 inosine-treated) were outliers and were excluded from the analysis. Data was normalized using quantile normalization, and analysis of differential expression was performed using a linear model fitting (LIMMA package, (Smyth, 2005). Differentially expressed genes were classified according to gene ontology using Bioconductor packages and online tools (DAVID, http://david.abcc.ncifcrf.gov/). Pathway analysis was carried out using Ingenuity Pathway Analysis (Ingenuity Systems, www.ingenuity.com)."}
{"smiles": "OC[C@H]1O[C@@H](n2cnc3c(O)ncnc32)[C@H](O)[C@@H]1O", "note": "[inosine]", "values": [{"measurement": "Signal Intensity, Spnb4", "setting": "ILMN_66300, inosine after stroke", "result": 1147}, {"measurement": "Fold-Induction Stroke, ino vs. cntrl, Bbp", "setting": "ILMN_66323", "result": 0.58}, {"measurement": "Signal Intensity, Bbp", "setting": "ILMN_66323, inosine after stroke", "result": 1150}, {"measurement": "Fold-Induction Stroke, ino vs. cntrl, LOC305122", "setting": "ILMN_66350", "result": 0.58}, {"measurement": "Signal Intensity, LOC305122", "setting": "ILMN_66350, inosine after stroke", "result": 771}, {"measurement": "Fold-Induction Stroke, ino vs. cntrl, Plekhb1", "setting": "ILMN_66651", "result": 0.62}, {"measurement": "Signal Intensity, Plekhb1", "setting": "ILMN_66651, inosine after stroke", "result": 1687}, {"measurement": "Fold-Induction Stroke, ino vs. cntrl, Ppp1r11", "setting": "ILMN_66809", "result": 0.90}, {"measurement": "Signal Intensity, Ppp1r11", "setting": "ILMN_66809, inosine after stroke", "result": 865}, {"measurement": "Fold-Induction Stroke, ino vs. cntrl, LOC501538", "setting": "ILMN_66820", "result": 0.64}, {"measurement": "Signal Intensity, LOC501538", "setting": "ILMN_66820, inosine after stroke", "result": 1132}, {"measurement": "Fold-Induction Stroke, ino vs. cntrl, Slc25a11", "setting": "ILMN_66823", "result": 0.65}, {"measurement": "Signal Intensity, Slc25a11", "setting": "ILMN_66823, inosine after stroke", "result": 263}, {"measurement": "Fold-Induction Stroke, ino vs. cntrl, Optn", "setting": "ILMN_67016", "result": 0.69}, {"measurement": "Signal Intensity, Optn", "setting": "ILMN_67016, inosine after stroke", "result": 360}, {"measurement": "Fold-Induction Stroke, ino vs. cntrl, Lxn", "setting": "ILMN_67020", "result": 0.72}, {"measurement": "Signal Intensity, Lxn", "setting": "ILMN_67020, inosine after stroke", "result": 433}, {"measurement": "Fold-Induction Stroke, ino vs. cntrl, Psmc5", "setting": "ILMN_67036", "result": 0.54}, {"measurement": "Signal Intensity, Psmc5", "setting": "ILMN_67036, inosine after stroke", "result": 1620}, {"measurement": "Fold-Induction Stroke, ino vs. cntrl, MGC72992", "setting": "ILMN_67222", "result": 0.63}, {"measurement": "Signal Intensity, MGC72992", "setting": "ILMN_67222, inosine after stroke", "result": 359}, {"measurement": "Fold-Induction Stroke, ino vs. cntrl, Ywhaq", "setting": "ILMN_67273", "result": 0.66}, {"measurement": "Signal Intensity, Ywhaq", "setting": "ILMN_67273, inosine after stroke", "result": 2844}, {"measurement": "Fold-Induction Stroke, ino vs. cntrl, LOC498696", "setting": "ILMN_67275", "result": 0.51}, {"measurement": "Signal Intensity, LOC498696", "setting": "ILMN_67275, inosine after stroke", "result": 514}, {"measurement": "Fold-induction CSMNs: Cd63", "setting": "ILMN_67382, over and above inosine's effect of decreasing stroke-induced changes", "result": 2.10, "unit": "fold"}, {"measurement": "Fold-Induction Stroke, ino vs. cntrl, Ggcx", "setting": "ILMN_67463", "result": 0.93}, {"measurement": "Signal Intensity, Ggcx", "setting": "ILMN_67463, inosine after stroke", "result": 526}, {"measurement": "Fold-Induction Stroke, ino vs. cntrl, Kif3b", "setting": "ILMN_67572", "result": 0.79}, {"measurement": "Signal Intensity, Kif3b", "setting": "ILMN_67572, inosine after stroke", "result": 642}, {"measurement": "Fold-Induction Stroke, ino vs. cntrl, Zfp422", "setting": "ILMN_67578", "result": 0.99}, {"measurement": "Signal Intensity, Zfp422", "setting": "ILMN_67578, inosine after stroke", "result": 557}, {"measurement": "Fold-induction CSMNs: Ms4a6b", "setting": "ILMN_67686, over and above inosine's effect of decreasing stroke-induced changes", "result": 2.03, "unit": "fold"}, {"measurement": "Fold-Induction Stroke, ino vs. cntrl, Dcamkl1", "setting": "ILMN_67724", "result": 0.59}, {"measurement": "Signal Intensity, Dcamkl1", "setting": "ILMN_67724, inosine after stroke", "result": 4398}, {"measurement": "Fold-Induction Stroke, ino vs. cntrl, LOC501601", "setting": "ILMN_67885", "result": 0.54}, {"measurement": "Signal Intensity, LOC501601", "setting": "ILMN_67885, inosine after stroke", "result": 791}, {"measurement": "Fold-Induction Stroke, ino vs. cntrl, Ca2", "setting": "ILMN_67903", "result": 0.47}, {"measurement": "Signal Intensity, Ca2", "setting": "ILMN_67903, inosine after stroke", "result": 1008}, {"measurement": "Fold-Induction Stroke, ino vs. cntrl, LOC287622", "setting": "ILMN_67961", "result": 0.69}, {"measurement": "Signal Intensity, LOC287622", "setting": "ILMN_67961, inosine after stroke", "result": 400}, {"measurement": "Fold-induction CSMNs: Gfap", "setting": "ILMN_68224, over and above inosine's effect of decreasing stroke-induced changes", "result": 2.46, "unit": "fold"}, {"measurement": "Fold-Induction Stroke, ino vs. cntrl, Lkap", "setting": "ILMN_68337", "result": 0.64}, {"measurement": "Signal Intensity, Lkap", "setting": "ILMN_68337, inosine after stroke", "result": 758}, {"measurement": "Fold-Induction Stroke, ino vs. cntrl, Gsn", "setting": "ILMN_68511", "result": 0.64}, {"measurement": "Signal Intensity, Gsn", "setting": "ILMN_68511, inosine after stroke", "result": 2157}, {"measurement": "Fold-Induction Stroke, ino vs. cntrl, Flot2", "setting": "ILMN_68584", "result": 0.70}, {"measurement": "Signal Intensity, Flot2", "setting": "ILMN_68584, inosine after stroke", "result": 667}, {"measurement": "Fold-Induction Stroke, ino vs. cntrl, Rab40b", "setting": "ILMN_68736", "result": 0.63}, {"measurement": "Signal Intensity, Rab40b", "setting": "ILMN_68736, inosine after stroke", "result": 476}, {"measurement": "Fold-Induction Stroke, ino vs. cntrl, Dhcr24", "setting": "ILMN_68892", "result": 0.53}, {"measurement": "Signal Intensity, Dhcr24", "setting": "ILMN_68892, inosine after stroke", "result": 1032}, {"measurement": "Fold-Induction Stroke, ino vs. cntrl, Sfxn3", "setting": "ILMN_68903", "result": 0.57}, {"measurement": "Signal Intensity, Sfxn3", "setting": "ILMN_68903, inosine after stroke", "result": 261}, {"measurement": "Fold-Induction Stroke, ino vs. cntrl, Tde2", "setting": "ILMN_68952", "result": 0.53}, {"measurement": "Signal Intensity, Tde2", "setting": "ILMN_68952, inosine after stroke", "result": 545}, {"measurement": "Fold-Induction Stroke, ino vs. cntrl, RGD1309158", "setting": "ILMN_69031", "result": 0.52}, {"measurement": "Signal Intensity, RGD1309158", "setting": "ILMN_69031, inosine after stroke", "result": 630}, {"measurement": "Fold-Induction Stroke, ino vs. cntrl, LOC289036", "setting": "ILMN_69224", "result": 0.72}, {"measurement": "Signal Intensity, LOC289036", "setting": "ILMN_69224, inosine after stroke", "result": 1532}, {"measurement": "Fold-induction CSMNs: Arpc1b", "setting": "ILMN_69642, over and above inosine's effect of decreasing stroke-induced changes", "result": 2.31, "unit": "fold"}, {"measurement": "Fold-Induction Stroke, ino vs. cntrl, Ubl3", "setting": "ILMN_69708", "result": 0.83}, {"measurement": "Signal Intensity, Ubl3", "setting": "ILMN_69708, inosine after stroke", "result": 479}, {"measurement": "Fold-Induction, complement cascade gene Bf (B-factor, properdin)", "setting": "ILMN_69719, LCM-captured CSMNs contralateral a stroke", "result": 2.73, "unit": "fold"}, {"measurement": "Fold-Induction Stroke, ino vs. cntrl, LOC296126", "setting": "ILMN_69931", "result": 0.64}, {"measurement": "Signal Intensity, LOC296126", "setting": "ILMN_69931, inosine after stroke", "result": 332}, {"measurement": "Fold-Induction Stroke, ino vs. cntrl, LOC315463", "setting": "ILMN_69949", "result": 0.54}, {"measurement": "Signal Intensity, LOC315463", "setting": "ILMN_69949, inosine after stroke", "result": 709}, {"measurement": "Fold-Induction Stroke, ino vs. cntrl, Zfp216", "setting": "ILMN_70270", "result": 0.66}, {"measurement": "Signal Intensity, Zfp216", "setting": "ILMN_70270, inosine after stroke", "result": 888}, {"measurement": "Fold-induction CSMNs: A2m", "setting": "ILMN_70335, over and above inosine's effect of decreasing stroke-induced changes", "result": 4.10, "unit": "fold"}, {"measurement": "Fold-Induction Stroke, ino vs. cntrl, LOC366188", "setting": "ILMN_70369", "result": 0.85}, {"measurement": "Signal Intensity, LOC366188", "setting": "ILMN_70369, inosine after stroke", "result": 1100}]}
